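Cultured in 96-well plates, cells were exposed to test compound for 48 hours across five concentrations. Abbreviation: GI50, concentration required for 50% inhibition of growth. TGI: total growth inhibition.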
Tests used:
Test in all cases: inhibition of tumour cell growth, NCI panel, 48 h
786-0 renal = tested on: 786-0 renal
A498 renal = tested on: A498 renal
A549 NSCLC = tested on: A549 NSCLC
ACHN renal = tested on: ACHN renal
BT-549 breast = tested on: BT-549 breast
CAKI-1 renal = tested on: CAKI-1 renal
CCRF-CEM leukemia = tested on: CCRF-CEM leukemia
COLO 205 colon = tested on: COLO 205 colon
DU-145 prostate = tested on: DU-145 prostate
EKVX NSCLC = tested on: EKVX NSCLC
HCC-2998 colon = tested on: HCC-2998 colon
HCT-116 colon = tested on: HCT-116 colon
HCT-15 colon = tested on: HCT-15 colon
HL-60(TB) leukemia = tested on: HL-60(TB) leukemia
HOP-62 NSCLC = tested on: HOP-62 NSCLC
HOP-92 NSCLC = tested on: HOP-92 NSCLC
HS 578T breast = tested on: HS 578T breast
HT29 colon = tested on: HT29 colon
IGROV1 ovarian = tested on: IGROV1 ovarian
K-562 leukemia = tested on: K-562 leukemia
KM12 colon = tested on: KM12 colon
LOX IMVI melanoma = tested on: LOX IMVI melanoma
M14 melanoma = tested on: M14 melanoma
MALME-3M melanoma = tested on: MALME-3M melanoma
MCF7 breast = tested on: MCF7 breast
MDA-MB-231 breast = tested on: MDA-MB-231 breast
MDA-MB-435 = tested on: MDA-MB-435
MOLT-4 leukemia = tested on: MOLT-4 leukemia
NCI-H226 lung = tested on: NCI-H226 lung
NCI-H23 lung = tested on: NCI-H23 lung
NCI-H460 lung = tested on: NCI-H460 lung
NCI-H522 lung = tested on: NCI-H522 lung
NCI/ADR-RES ovarian = tested on: NCI/ADR-RES ovarian
OVCAR-3 ovarian = tested on: OVCAR-3 ovarian
OVCAR-4 ovarian = tested on: OVCAR-4 ovarian
OVCAR-5 ovarian = tested on: OVCAR-5 ovarian
OVCAR-8 ovarian = tested on: OVCAR-8 ovarian
PC-3 prostate = tested on: PC-3 prostate
RPMI-8226 leukemia = tested on: RPMI-8226 leukemia
RXF 393 renal = tested on: RXF 393 renal
SF-268 CNS = tested on: SF-268 CNS
SF-295 CNS = tested on: SF-295 CNS
SF-539 CNS = tested on: SF-539 CNS
SK-MEL-2 melanoma = tested on: SK-MEL-2 melanoma
SK-MEL-28 melanoma = tested on: SK-MEL-28 melanoma
SK-MEL-5 melanoma = tested on: SK-MEL-5 melanoma
SK-OV-3 ovarian = tested on: SK-OV-3 ovarian
SN12C renal = tested on: SN12C renal
SNB-19 CNS = tested on: SNB-19 CNS
SNB-75 CNS = tested on: SNB-75 CNS
SR leukemia = tested on: SR leukemia
SW-620 colon = tested on: SW-620 colon
T-47D breast = tested on: T-47D breast
TK-10 renal = tested on: TK-10 renal
U251 CNS = tested on: U251 CNS
UACC-257 melanoma = tested on: UACC-257 melanoma
UACC-62 melanoma = tested on: UACC-62 melanoma
UO-31 renal = tested on: UO-31 renal

O=C1N[C@@H]2[C@@H](O)[C@@H](O)[C@H](O)C[C@H]2c2cc3c(c(O)c21)OCCO3 was tested. Which GI50 (786-0 renal) did it give?
The GI50 was 293 nM.

And the TGI (786-0 renal)?
The TGI was 2080 nM.

What about the GI50 (A498 renal) of the same molecule?
The GI50 was 392 nM.

What about the TGI (A498 renal) of the same molecule?
The TGI was 1580 nM.

What about the GI50 (A549 NSCLC) of the same molecule?
Its GI50 is 354 nM.

And the TGI (A549 NSCLC)?
Its TGI is 5580 nM.

What about the GI50 (ACHN renal) of the same molecule?
Its GI50 is 306 nM.

What about the TGI (ACHN renal) of the same molecule?
Its TGI is 1460 nM.

What about the GI50 (BT-549 breast) of the same molecule?
Its GI50 is 301 nM.

And the TGI (BT-549 breast)?
The TGI was 1250 nM.

What about the GI50 (CAKI-1 renal) of the same molecule?
The GI50 was 989 nM.

And the TGI (CAKI-1 renal)?
The TGI was 6140 nM.

And the GI50 (CCRF-CEM leukemia)?
The GI50 was 73.7 nM.

What about the TGI (CCRF-CEM leukemia) of the same molecule?
Its TGI is 1830 nM.

And the GI50 (COLO 205 colon)?
The GI50 was 162 nM.

And the TGI (COLO 205 colon)?
The TGI was 405 nM.

And the GI50 (DU-145 prostate)?
The GI50 was 229 nM.

And the TGI (DU-145 prostate)?
Its TGI is 840 nM.

What about the GI50 (EKVX NSCLC) of the same molecule?
The GI50 was 323 nM.

What about the TGI (EKVX NSCLC) of the same molecule?
Its TGI is 1850 nM.

What about the GI50 (HCC-2998 colon) of the same molecule?
The GI50 was 227 nM.

What about the TGI (HCC-2998 colon) of the same molecule?
The TGI was 765 nM.

What about the GI50 (HCT-116 colon) of the same molecule?
Its GI50 is 107 nM.

And the TGI (HCT-116 colon)?
The TGI was 1220 nM.

And the GI50 (HCT-15 colon)?
Its GI50 is 270 nM.

What about the TGI (HCT-15 colon) of the same molecule?
The TGI was 1800 nM.

And the GI50 (HL-60(TB) leukemia)?
Its GI50 is 190 nM.

And the TGI (HL-60(TB) leukemia)?
Its TGI is 599 nM.

What about the GI50 (HOP-62 NSCLC) of the same molecule?
The GI50 was 282 nM.

And the TGI (HOP-62 NSCLC)?
Its TGI is 1320 nM.

And the GI50 (HOP-92 NSCLC)?
The GI50 was 116 nM.

What about the TGI (HOP-92 NSCLC) of the same molecule?
Its TGI is 892 nM.

And the GI50 (HS 578T breast)?
The GI50 was 270 nM.

And the TGI (HS 578T breast)?
The TGI was 976 nM.

And the GI50 (HT29 colon)?
Its GI50 is 315 nM.

And the TGI (HT29 colon)?
Its TGI is 2080 nM.

And the GI50 (IGROV1 ovarian)?
The GI50 was 389 nM.

What about the TGI (IGROV1 ovarian) of the same molecule?
The TGI was 3130 nM.

What about the GI50 (K-562 leukemia) of the same molecule?
Its GI50 is 130 nM.

What about the TGI (K-562 leukemia) of the same molecule?
The TGI was 11200 nM.

And the GI50 (KM12 colon)?
The GI50 was 169 nM.

What about the TGI (KM12 colon) of the same molecule?
The TGI was 1100 nM.

And the GI50 (LOX IMVI melanoma)?
Its GI50 is 167 nM.

What about the TGI (LOX IMVI melanoma) of the same molecule?
The TGI was 444 nM.

What about the GI50 (M14 melanoma) of the same molecule?
Its GI50 is 246 nM.

And the TGI (M14 melanoma)?
Its TGI is 1040 nM.

And the GI50 (MALME-3M melanoma)?
Its GI50 is 209 nM.

And the TGI (MALME-3M melanoma)?
The TGI was 731 nM.

And the GI50 (MCF7 breast)?
The GI50 was 154 nM.

And the TGI (MCF7 breast)?
Its TGI is 796 nM.

What about the GI50 (MDA-MB-231 breast) of the same molecule?
Its GI50 is 236 nM.

And the TGI (MDA-MB-231 breast)?
Its TGI is 1070 nM.

What about the GI50 (MDA-MB-435) of the same molecule?
Its GI50 is 269 nM.

What about the TGI (MDA-MB-435) of the same molecule?
Its TGI is 1220 nM.

And the GI50 (MOLT-4 leukemia)?
The GI50 was 193 nM.

What about the TGI (MOLT-4 leukemia) of the same molecule?
The TGI was 3160 nM.

What about the GI50 (NCI-H226 lung) of the same molecule?
Its GI50 is 273 nM.

And the TGI (NCI-H226 lung)?
The TGI was 1080 nM.

And the GI50 (NCI-H23 lung)?
The GI50 was 238 nM.

What about the TGI (NCI-H23 lung) of the same molecule?
Its TGI is 915 nM.

What about the GI50 (NCI-H460 lung) of the same molecule?
Its GI50 is 157 nM.

What about the TGI (NCI-H460 lung) of the same molecule?
Its TGI is 1130 nM.

And the GI50 (NCI-H522 lung)?
The GI50 was 199 nM.

And the TGI (NCI-H522 lung)?
The TGI was 993 nM.

What about the GI50 (NCI/ADR-RES ovarian) of the same molecule?
Its GI50 is 629 nM.

And the TGI (NCI/ADR-RES ovarian)?
Its TGI is 5380 nM.

What about the GI50 (OVCAR-3 ovarian) of the same molecule?
The GI50 was 276 nM.

What about the TGI (OVCAR-3 ovarian) of the same molecule?
Its TGI is 1010 nM.

And the GI50 (OVCAR-4 ovarian)?
The GI50 was 217 nM.

And the TGI (OVCAR-4 ovarian)?
Its TGI is 838 nM.

What about the GI50 (OVCAR-5 ovarian) of the same molecule?
Its GI50 is 412 nM.

What about the TGI (OVCAR-5 ovarian) of the same molecule?
The TGI was 3280 nM.

What about the GI50 (OVCAR-8 ovarian) of the same molecule?
Its GI50 is 287 nM.

What about the TGI (OVCAR-8 ovarian) of the same molecule?
The TGI was 3210 nM.

What about the GI50 (PC-3 prostate) of the same molecule?
Its GI50 is 293 nM.

What about the TGI (PC-3 prostate) of the same molecule?
Its TGI is 2540 nM.

What about the GI50 (RPMI-8226 leukemia) of the same molecule?
Its GI50 is 256 nM.

And the TGI (RPMI-8226 leukemia)?
Its TGI is 910 nM.

And the GI50 (RXF 393 renal)?
Its GI50 is 264 nM.

And the TGI (RXF 393 renal)?
Its TGI is 1110 nM.

And the GI50 (SF-268 CNS)?
Its GI50 is 247 nM.

What about the TGI (SF-268 CNS) of the same molecule?
The TGI was 1080 nM.

And the GI50 (SF-295 CNS)?
The GI50 was 388 nM.

And the TGI (SF-295 CNS)?
The TGI was 2650 nM.

And the GI50 (SF-539 CNS)?
The GI50 was 254 nM.

And the TGI (SF-539 CNS)?
Its TGI is 928 nM.

What about the GI50 (SK-MEL-2 melanoma) of the same molecule?
The GI50 was 286 nM.

And the TGI (SK-MEL-2 melanoma)?
Its TGI is 1060 nM.

And the GI50 (SK-MEL-28 melanoma)?
The GI50 was 274 nM.

What about the TGI (SK-MEL-28 melanoma) of the same molecule?
The TGI was 1230 nM.

What about the GI50 (SK-MEL-5 melanoma) of the same molecule?
The GI50 was 192 nM.

And the TGI (SK-MEL-5 melanoma)?
Its TGI is 478 nM.

What about the GI50 (SK-OV-3 ovarian) of the same molecule?
The GI50 was 496 nM.

And the TGI (SK-OV-3 ovarian)?
The TGI was 4030 nM.

What about the GI50 (SN12C renal) of the same molecule?
The GI50 was 162 nM.

What about the TGI (SN12C renal) of the same molecule?
Its TGI is 978 nM.

What about the GI50 (SNB-19 CNS) of the same molecule?
Its GI50 is 179 nM.

And the TGI (SNB-19 CNS)?
The TGI was 1020 nM.

What about the GI50 (SNB-75 CNS) of the same molecule?
Its GI50 is 466 nM.

What about the TGI (SNB-75 CNS) of the same molecule?
The TGI was 2620 nM.

And the GI50 (SR leukemia)?
Its GI50 is 245 nM.

And the TGI (SR leukemia)?
Its TGI is 27400 nM.

And the GI50 (SW-620 colon)?
The GI50 was 233 nM.

And the TGI (SW-620 colon)?
The TGI was 1550 nM.

What about the GI50 (T-47D breast) of the same molecule?
Its GI50 is 176 nM.

What about the TGI (T-47D breast) of the same molecule?
The TGI was 1310 nM.

What about the GI50 (TK-10 renal) of the same molecule?
Its GI50 is 684 nM.

What about the TGI (TK-10 renal) of the same molecule?
The TGI was 5090 nM.

What about the GI50 (U251 CNS) of the same molecule?
Its GI50 is 238 nM.

What about the TGI (U251 CNS) of the same molecule?
The TGI was 8420 nM.

And the GI50 (UACC-257 melanoma)?
Its GI50 is 340 nM.

And the TGI (UACC-257 melanoma)?
The TGI was 1970 nM.

And the GI50 (UACC-62 melanoma)?
Its GI50 is 272 nM.

What about the TGI (UACC-62 melanoma) of the same molecule?
The TGI was 1380 nM.

And the GI50 (UO-31 renal)?
The GI50 was 294 nM.

And the TGI (UO-31 renal)?
Its TGI is 1720 nM.

From PubChem BioAssay (NCI)
